Columns and labels:
PDE V = PDE V (Homo sapiens, UniProt O76074); assay: PDE V inhibition; type: biochemical
[1] = solubility in water and wettability of the crystalline form; type: physicochemical
[2] = absorption and bioavailability tests in animals; type: in vivo

For `CCn1c(=O)c2c(nc(N[C@@H]3CCC[C@H]3O)n2Cc2ccc(OC)c(Br)c2)n(CCO)c1=O` [7-[(3-Bromo-4-methoxyphenyl)methyl]-1-ethyl-3,7-dihydro-8-[[(1R,2R)-2-hydroxycyclopentyl]amino]-3-(2-hydroxyethyl)-1H-purine-2,6-dione], the “effectiveness as a PDE V inhibitor” value (PDE V) was “particularly effective”, the “specificity for PDE isozyme” value (PDE V) was “specificity for the PDE V isozyme” and the solubility in water [1] was “poor”. The wettability ([1]; crystalline form) was “poor”, the “absorption from the gastrointestinal tract” value ([2]; in vivo) was “slow” and the bioavailability ([2]; tests conducted so far in animals) was “low”.
